# Assays:
# [1] = biological target: Fibroblast growth factor receptor 1 (Homo sapiens) (UniProt P11362); experiment: Percent inhibition against FGFR1 at 10 uM by HTRF method; parameters: scale not given: the % may be the effect or the level left
# [2] = biological target: Cyclin-dependent kinase 5 (Homo sapiens) (UniProt Q00535); experiment: […] against Cdk5 at 10 uM by HTRF method
# [3] = biological target: Cyclin-dependent kinase 2 (Homo sapiens) (UniProt P24941); experiment: […] against Cdk2 at 10 uM by HTRF method
# [4] = biological target: T1, Vascular endothelial growth factor receptor 2 (Homo sapiens, UniProt P35968); experiment: Inhibition of VEGFR2 by enzymatic assay
# [5] = biological target: Bcr/Abl fusion protein (Homo sapiens) (UniProt P00519+P11274); experiment: Inhibition of bcr-Abl at 10 uM by HTRF method; type: protein assay; parameters: scale not given: the % may be the effect or the level left
# Sequence of Bcr/Abl fusion protein (Homo sapiens) (P00519 whole entry, looked up, the tested form may be a part): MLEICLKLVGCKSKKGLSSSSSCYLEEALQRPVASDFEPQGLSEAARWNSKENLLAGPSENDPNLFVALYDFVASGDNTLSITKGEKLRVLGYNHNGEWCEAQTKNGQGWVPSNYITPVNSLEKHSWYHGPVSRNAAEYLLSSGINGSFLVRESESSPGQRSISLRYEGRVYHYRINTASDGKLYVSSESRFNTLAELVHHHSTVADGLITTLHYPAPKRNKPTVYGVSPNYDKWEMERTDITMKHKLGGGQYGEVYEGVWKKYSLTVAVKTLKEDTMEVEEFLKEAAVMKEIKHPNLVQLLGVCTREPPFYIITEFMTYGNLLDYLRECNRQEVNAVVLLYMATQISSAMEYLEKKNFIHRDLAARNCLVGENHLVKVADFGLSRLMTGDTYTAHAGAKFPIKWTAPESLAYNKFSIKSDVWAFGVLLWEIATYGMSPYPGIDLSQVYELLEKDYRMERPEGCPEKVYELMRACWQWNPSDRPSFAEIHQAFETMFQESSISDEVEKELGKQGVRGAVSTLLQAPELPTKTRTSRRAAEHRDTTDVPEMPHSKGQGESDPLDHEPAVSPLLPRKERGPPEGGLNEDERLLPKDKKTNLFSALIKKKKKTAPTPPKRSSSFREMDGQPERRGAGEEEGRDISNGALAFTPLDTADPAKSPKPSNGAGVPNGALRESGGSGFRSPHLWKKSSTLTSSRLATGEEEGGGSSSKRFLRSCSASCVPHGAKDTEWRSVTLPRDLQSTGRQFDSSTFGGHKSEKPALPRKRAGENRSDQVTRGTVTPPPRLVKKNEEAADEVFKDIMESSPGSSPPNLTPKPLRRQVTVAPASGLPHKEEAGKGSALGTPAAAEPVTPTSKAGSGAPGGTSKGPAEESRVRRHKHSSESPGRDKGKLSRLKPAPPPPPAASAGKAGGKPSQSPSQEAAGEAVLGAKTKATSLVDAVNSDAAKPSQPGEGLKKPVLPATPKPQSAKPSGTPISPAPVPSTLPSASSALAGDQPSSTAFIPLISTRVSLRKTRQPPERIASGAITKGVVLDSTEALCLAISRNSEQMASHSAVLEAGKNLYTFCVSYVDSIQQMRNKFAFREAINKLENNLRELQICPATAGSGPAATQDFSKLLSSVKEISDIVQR
# Sequence of Bcr/Abl fusion protein (Homo sapiens) (P11274 whole entry, looked up, the tested form may be a part): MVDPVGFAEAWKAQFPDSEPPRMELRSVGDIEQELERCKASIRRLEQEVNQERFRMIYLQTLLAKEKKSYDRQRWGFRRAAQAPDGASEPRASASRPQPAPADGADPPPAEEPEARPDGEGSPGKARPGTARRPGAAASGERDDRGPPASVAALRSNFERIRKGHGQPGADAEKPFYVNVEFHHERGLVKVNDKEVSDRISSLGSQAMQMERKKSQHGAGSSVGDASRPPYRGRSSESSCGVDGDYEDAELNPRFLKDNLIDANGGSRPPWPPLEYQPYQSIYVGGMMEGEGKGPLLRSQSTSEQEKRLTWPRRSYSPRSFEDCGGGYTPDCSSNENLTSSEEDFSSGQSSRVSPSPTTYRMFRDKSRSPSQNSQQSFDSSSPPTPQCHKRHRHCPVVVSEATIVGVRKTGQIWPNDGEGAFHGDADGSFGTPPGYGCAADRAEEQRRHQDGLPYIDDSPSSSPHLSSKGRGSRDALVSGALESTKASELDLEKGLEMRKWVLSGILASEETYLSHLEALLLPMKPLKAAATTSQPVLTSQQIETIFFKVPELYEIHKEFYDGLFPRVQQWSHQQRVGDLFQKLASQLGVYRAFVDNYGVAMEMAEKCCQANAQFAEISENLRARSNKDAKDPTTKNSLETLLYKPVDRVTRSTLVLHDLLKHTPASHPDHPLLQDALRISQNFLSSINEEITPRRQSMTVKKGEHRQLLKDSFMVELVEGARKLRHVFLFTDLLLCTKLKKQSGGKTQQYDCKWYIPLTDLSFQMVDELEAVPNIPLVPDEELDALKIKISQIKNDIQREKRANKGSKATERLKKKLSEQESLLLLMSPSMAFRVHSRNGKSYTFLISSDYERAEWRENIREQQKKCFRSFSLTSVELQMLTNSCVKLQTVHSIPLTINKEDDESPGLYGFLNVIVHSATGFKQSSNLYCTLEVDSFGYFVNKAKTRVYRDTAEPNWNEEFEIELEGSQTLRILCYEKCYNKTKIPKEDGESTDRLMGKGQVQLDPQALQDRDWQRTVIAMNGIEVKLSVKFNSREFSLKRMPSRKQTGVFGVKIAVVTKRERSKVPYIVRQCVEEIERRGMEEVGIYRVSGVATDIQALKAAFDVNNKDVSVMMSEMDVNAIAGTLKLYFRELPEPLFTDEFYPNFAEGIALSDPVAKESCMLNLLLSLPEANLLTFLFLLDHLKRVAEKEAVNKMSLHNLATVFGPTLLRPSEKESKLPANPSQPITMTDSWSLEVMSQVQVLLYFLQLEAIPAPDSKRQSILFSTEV
# [6] = biological target: Insulin-like growth factor 1 receptor (Homo sapiens) (UniProt P08069); experiment: […] against IGF1R at 10 uM by HTRF method
# [7] = biological target: T1, Vascular endothelial growth factor receptor 2; experiment: Inhibition of VEGFR2 in 293 adenovirus transfected kidney cells by cell-based ELISA assay
# [8] = biological target: Vascular endothelial growth factor receptor 1 (Homo sapiens, UniProt P17948); experiment: Inhibition of VEGFR1 by enzymatic assay
# [9] = biological target: Receptor tyrosine-protein kinase erbB-2 (Homo sapiens) (UniProt P04626); experiment: […] against ErbB2 at 10 uM by HTRF method
# Sequence of Receptor tyrosine-protein kinase erbB-2 (Homo sapiens) (P04626 whole entry): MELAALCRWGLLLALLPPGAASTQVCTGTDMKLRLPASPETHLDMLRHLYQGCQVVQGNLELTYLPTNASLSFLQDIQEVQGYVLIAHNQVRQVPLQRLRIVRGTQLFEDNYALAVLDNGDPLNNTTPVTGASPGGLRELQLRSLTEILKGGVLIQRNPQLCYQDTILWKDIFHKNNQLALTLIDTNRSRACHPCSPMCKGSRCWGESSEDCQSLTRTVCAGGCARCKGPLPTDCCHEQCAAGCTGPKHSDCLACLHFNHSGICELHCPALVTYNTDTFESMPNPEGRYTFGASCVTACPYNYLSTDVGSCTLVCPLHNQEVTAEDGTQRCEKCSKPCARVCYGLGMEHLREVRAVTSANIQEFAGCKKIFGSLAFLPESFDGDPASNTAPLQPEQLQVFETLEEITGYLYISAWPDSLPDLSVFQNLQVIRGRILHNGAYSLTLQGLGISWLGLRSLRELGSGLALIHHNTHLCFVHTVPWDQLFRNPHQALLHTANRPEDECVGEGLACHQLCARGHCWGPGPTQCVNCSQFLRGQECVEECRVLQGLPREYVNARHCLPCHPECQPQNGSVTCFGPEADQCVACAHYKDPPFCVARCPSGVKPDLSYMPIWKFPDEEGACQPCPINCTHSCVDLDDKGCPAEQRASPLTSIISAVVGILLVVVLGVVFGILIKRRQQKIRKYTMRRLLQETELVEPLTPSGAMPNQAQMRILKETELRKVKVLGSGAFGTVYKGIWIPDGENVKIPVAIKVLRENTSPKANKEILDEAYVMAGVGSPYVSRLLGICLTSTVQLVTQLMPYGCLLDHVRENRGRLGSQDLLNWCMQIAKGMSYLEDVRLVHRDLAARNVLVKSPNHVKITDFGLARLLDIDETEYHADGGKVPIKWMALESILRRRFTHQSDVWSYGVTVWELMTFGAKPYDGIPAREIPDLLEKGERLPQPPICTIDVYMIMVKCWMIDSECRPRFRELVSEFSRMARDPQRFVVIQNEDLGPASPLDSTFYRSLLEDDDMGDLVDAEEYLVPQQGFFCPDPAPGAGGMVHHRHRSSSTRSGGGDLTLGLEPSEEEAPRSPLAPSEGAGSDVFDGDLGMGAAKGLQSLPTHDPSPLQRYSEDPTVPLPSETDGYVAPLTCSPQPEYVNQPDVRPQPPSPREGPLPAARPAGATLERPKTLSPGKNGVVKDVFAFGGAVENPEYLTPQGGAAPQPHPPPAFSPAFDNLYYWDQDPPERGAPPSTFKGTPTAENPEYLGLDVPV
# [10] = biological target: RAC-alpha serine/threonine-protein kinase (Homo sapiens) (UniProt P31749); experiment: […] against PKB/Akt at 10 uM by HTRF method
# Sequence of RAC-alpha serine/threonine-protein kinase (Homo sapiens) (P31749 whole entry): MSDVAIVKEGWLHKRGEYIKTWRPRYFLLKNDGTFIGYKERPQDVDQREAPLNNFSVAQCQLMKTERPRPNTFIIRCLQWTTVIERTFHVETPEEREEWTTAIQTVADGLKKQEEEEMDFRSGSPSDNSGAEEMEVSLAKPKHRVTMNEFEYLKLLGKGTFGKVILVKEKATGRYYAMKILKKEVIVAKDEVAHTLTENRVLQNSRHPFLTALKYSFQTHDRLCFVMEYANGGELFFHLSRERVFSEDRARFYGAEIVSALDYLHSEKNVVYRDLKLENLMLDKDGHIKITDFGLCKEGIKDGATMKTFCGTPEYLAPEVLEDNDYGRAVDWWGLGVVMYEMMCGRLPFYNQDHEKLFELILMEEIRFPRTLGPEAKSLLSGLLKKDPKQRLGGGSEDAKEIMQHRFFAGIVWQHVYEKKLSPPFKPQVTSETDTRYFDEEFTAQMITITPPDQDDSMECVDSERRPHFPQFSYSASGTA
# [11] = biological target: Hepatocyte growth factor receptor (Homo sapiens) (UniProt P08581); experiment: Percent inhibition against c-Met at 10 uM by HTRF method; parameters: scale not given: the % may be the effect or the level left
# [12] = biological target: Glycogen synthase kinase-3 beta (Homo sapiens) (UniProt P49841); experiment: Inhibition against GSK3-beta at 10 uM by HTRF method; parameters: scale not given: the % may be the effect or the level left
# Sequence of Glycogen synthase kinase-3 beta (Homo sapiens) (P49841 whole entry, looked up): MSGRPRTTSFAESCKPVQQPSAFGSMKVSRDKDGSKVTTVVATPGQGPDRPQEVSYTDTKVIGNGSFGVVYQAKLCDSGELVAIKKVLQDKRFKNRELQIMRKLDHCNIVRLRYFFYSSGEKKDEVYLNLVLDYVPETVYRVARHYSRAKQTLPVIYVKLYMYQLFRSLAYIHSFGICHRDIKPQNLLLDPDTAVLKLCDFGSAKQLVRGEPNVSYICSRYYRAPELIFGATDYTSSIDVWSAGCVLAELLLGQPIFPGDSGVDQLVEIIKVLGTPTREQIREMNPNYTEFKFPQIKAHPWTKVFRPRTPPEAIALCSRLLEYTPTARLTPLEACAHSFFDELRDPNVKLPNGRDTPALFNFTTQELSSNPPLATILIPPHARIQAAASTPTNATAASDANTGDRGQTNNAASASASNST
# [13] = biological target: Epidermal growth factor receptor (Homo sapiens) (UniProt P00533); experiment: […] against ErbB1 at 10 uM by HTRF method
# [14] = biological target: T2, Ephrin type-B receptor 4 (Homo sapiens) (UniProt P54760); experiment: Percent inhibition against EphB4 at 10 uM by HTRF method; parameters: scale not given: the % may be the effect or the level left
# T2 sequence (whole entry): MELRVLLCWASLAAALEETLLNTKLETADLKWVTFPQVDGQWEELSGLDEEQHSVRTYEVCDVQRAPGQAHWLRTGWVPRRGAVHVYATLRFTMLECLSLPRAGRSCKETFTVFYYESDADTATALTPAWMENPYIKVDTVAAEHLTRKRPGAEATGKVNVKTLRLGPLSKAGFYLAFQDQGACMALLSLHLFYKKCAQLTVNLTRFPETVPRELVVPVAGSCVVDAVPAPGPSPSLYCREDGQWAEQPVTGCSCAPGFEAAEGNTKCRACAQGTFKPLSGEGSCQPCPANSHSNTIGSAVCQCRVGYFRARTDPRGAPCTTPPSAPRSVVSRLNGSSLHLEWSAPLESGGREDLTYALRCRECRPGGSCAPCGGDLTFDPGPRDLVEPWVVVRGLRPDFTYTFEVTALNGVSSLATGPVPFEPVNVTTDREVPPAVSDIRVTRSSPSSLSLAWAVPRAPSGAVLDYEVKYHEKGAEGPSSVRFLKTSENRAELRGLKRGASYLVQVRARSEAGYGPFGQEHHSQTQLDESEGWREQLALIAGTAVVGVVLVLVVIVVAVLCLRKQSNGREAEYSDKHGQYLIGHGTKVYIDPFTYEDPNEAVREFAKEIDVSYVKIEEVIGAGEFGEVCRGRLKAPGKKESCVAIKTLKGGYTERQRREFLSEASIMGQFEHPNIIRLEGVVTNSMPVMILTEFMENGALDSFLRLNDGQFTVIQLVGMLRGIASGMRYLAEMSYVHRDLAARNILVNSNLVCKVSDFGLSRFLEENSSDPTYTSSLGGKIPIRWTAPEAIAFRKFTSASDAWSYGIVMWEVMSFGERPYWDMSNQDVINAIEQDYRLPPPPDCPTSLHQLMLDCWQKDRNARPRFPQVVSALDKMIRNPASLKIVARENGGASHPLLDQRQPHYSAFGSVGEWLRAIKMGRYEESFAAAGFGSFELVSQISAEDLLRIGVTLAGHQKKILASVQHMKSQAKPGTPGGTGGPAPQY
# [15] = biological target: cAMP-dependent protein kinase (PKA) (Homo sapiens) (UniProt P22694+P17612+P22612); experiment: Inhibition against PKA at 10 uM by HTRF method; type: protein assay; parameters: scale not given: the % may be the effect or the level left
# [16] = biological target: Receptor-type tyrosine-protein kinase FLT3 (Homo sapiens) (UniProt P36888); experiment: Inhibition of Flt3 at 10 uM by HTRF method; parameters: scale not given: the % may be the effect or the level left
# Sequence of Cyclin-dependent kinase 5 (Homo sapiens) (Q00535 whole entry, looked up): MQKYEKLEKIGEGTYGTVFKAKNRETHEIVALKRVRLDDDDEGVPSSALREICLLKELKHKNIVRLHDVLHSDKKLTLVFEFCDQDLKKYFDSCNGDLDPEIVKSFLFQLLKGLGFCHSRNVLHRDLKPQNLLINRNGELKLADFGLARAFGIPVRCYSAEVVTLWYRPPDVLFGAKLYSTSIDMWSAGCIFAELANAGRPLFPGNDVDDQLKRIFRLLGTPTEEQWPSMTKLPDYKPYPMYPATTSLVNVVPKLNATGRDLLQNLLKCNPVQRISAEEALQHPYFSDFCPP
Structure (SMILES),Activity [1] [%],Activity [2] [%],Percent inhibition [3] [%],IC50 [4] [nM],Activity [5] [%],Activity [6] [%],IC50 [7] [nM],IC50 [8] [nM],Activity [9] [%],Activity [10] [%],Activity [11] [%],Activity [12] [%],Percent inhibition [13] [%],Activity [14] [%],Activity [15] [%],Activity [16] [%]
Cn1cnc(NCc2ccncc2)c1-c1nnc(Nc2cccc(OC(F)(F)F)c2)o1,< 30,< 30,< 30,46,< 30,< 30,130,560,< 30,< 30,< 30,< 30,< 30,< 30,< 30,< 30
Cn1cnc(NCc2ccncc2)c1-c1nnc(NCc2ccc3c(c2)OCO3)o1,< 30,< 30,< 30,140,< 30,< 30,270,440,< 30,< 30,< 30,< 30,< 30,< 30,< 30,< 30
CC(C)c1ccc(Nc2nnc(-c3c(NCc4ccncc4)ncn3C)o2)cc1,< 30,< 30,< 30,440,< 30,< 30,1150,770,< 30,< 30,< 30,< 30,< 30,< 30,< 30,< 30
Cn1cnc(NCc2ccc(F)c(F)c2)c1-c1nnc(Nc2ccc(Cl)cc2)o1,< 30,< 30,< 30,1860,< 30,< 30,5650,3310,< 30,< 30,< 30,< 30,< 30,< 30,< 30,< 30
Cn1cnc(NCc2cccnc2)c1-c1nnc(Nc2ccc(Cl)cc2)o1,< 30,< 30,< 30,> 10000,< 30,< 30,> 10000,> 10000,< 30,< 30,< 30,< 30,< 30,< 30,< 30,< 30
Cn1cnc(NCc2ccncc2)c1-c1nnc(Nc2ccc(Cl)c(Cl)c2)o1,< 30,< 30,< 30,180,< 30,< 30,260,490,< 30,< 30,< 30,< 30,< 30,< 30,< 30,< 30
Cn1cnc(NCc2ccncc2)c1-c1nnc(Nc2ccc(Cl)c(C(F)(F)F)c2)o1,< 30,< 30,< 30,43,< 30,< 30,100,510,< 30,< 30,< 30,< 30,< 30,< 30,< 30,< 30
Cn1cnc(NCc2cccc3ncccc23)c1-c1nnc(Nc2ccc(Cl)cc2)o1,< 30,< 30,< 30,3540,< 30,< 30,> 10000,> 10000,< 30,< 30,< 30,< 30,< 30,< 30,< 30,< 30
Cn1cnc(NCCc2ccc3c(c2)OCO3)c1-c1nnc(Nc2ccc(Cl)cc2)o1,< 30,< 30,< 30,960,< 30,< 30,> 10000,1470,< 30,< 30,< 30,< 30,< 30,< 30,< 30,< 30
Cn1cnc(NCc2ccccn2)c1-c1nnc(Nc2ccc(Cl)cc2)o1,< 30,< 30,< 30,> 10000,< 30,< 30,> 10000,> 10000,< 30,< 30,< 30,< 30,< 30,< 30,< 30,< 30
Cn1cnc(NCc2ccncc2)c1-c1nnc(Nc2ccc(Cl)cc2)o1,< 30,< 30,< 30,250,< 30,< 30,570,340,< 30,< 30,< 30,< 30,< 30,< 30,< 30,< 30
Cn1cnc(NCc2ccc3[nH]ncc3c2)c1-c1nnc(Nc2ccc(Cl)cc2)o1,< 30,< 30,< 30,2370,< 30,< 30,> 10000,> 10000,< 30,< 30,< 30,< 30,< 30,< 30,< 30,< 30
Cn1cnc(NCc2ccc3ccccc3n2)c1-c1nnc(Nc2ccc(Cl)cc2)o1,< 30,< 30,< 30,> 10000,< 30,< 30,> 10000,> 10000,< 30,< 30,< 30,< 30,< 30,< 30,< 30,< 30
Cc1ccc(Nc2nnc(-c3c(NCc4ccncc4)ncn3C)o2)c(F)c1,< 30,< 30,< 30,260,< 30,< 30,640,590,< 30,< 30,< 30,< 30,< 30,< 30,< 30,< 30
